Laboratory results reported in patent US20040241184A1, “Fermentation product of cyptoporous volvatus and its preparation method and use” (priority 2001, published 2004).

Tests used:
[1] = test system: sensitized cavies attacked by antigen (1% egg albumin); test: Pulmonary mechanical function (lung resistance RL) of sensitized cavies after antigen attack; format: in vivo, cavy; conditions: 7 mg/kg×1 d; P<0.05˜0.01 in all time phases during 10 min after antigen attack
Description: Suppose airway resistance (RL) is 1005 before being attacked by antigen. Compared with the model group: *P<0.05, **P <0.001, ***P<0.001.
Each cavy is sensitized by being injected 10 mg egg albumin into the muscles of its crus. 3-4 weeks later, antigen attack (1% egg albumin) is given and the caused changes of lung resistance (RL) are observed to evaluate the activity of the samples.

[2] = test system: cavy cough caused by citric acid; test: Cough reverberation of cavy caused by citric acid; format: in vivo; conditions: 10 mg · kg^−1, once daily 3 days
Description: Put cavies into a volume marked box to stabilize for 1 min, and then atomize 15% citric acid for 2 min by ultrasonic nebulizer. From then on, select the cavies that cough more than 10 times in minutes. Divide the selected cavies into 5 groups in terms of their cough times, and then treat them respectively with testing medicine sample CVFS 0.3 g/kg, 0.9 g/kg, 2.7 g/kg, positive control codeine phosphate (10 mg/kg), and the negative control group is administered by intragater method with 10 ml·kg^−1 physiological saline solution (i.g), one time every day, altogether 3 days. 1 hour after the last administration of medicine, induce cough by above method and count the cough times in 10 min from the beginning of atomization.

[3] = test system: sensitized cavies attacked by antigen (egg albumin); test: Example 4 polysaccharide: inflammatory cells in bronchial lung lavage solution of sensitized cavies after antigen attack (Table 7); format: in vivo, cavy; conditions: 0.5 mg/kg
Description: Take 20 g fermentation mycelial powder, add in 400 mL distilled water, boil and extract for 30 min. After filtration, add another 200 mL distilled water to the residue, then repeat the same steps. Mix the filtrate of the two times and add in 100 mL culture supernatant fluid. Then put the mixture into dialysis bag of retention molecular weight 10,000 Dalton and dialyze 10 mM pH6.0 buffer solution of HAc-NaAc 2000 mL for three days to remove small molecular substances in the solution. Change the penetrated liquid 1 time each day.
Then concentrate the residue to 100 mL. On animal test, the polysaccharide affects inflammatory cells in bronchial lung lavage solution of sensitized cavies after being attacked by antigen. (The results are described in Table 7.) 2% egg albumin gel solution is used to cause allergy and is subcutaneous injected (0.05 mL each part) in ten parts of two retral soles, groin, waist, back, neck and armpits of each cavy. 0.5 mL 2% egg albumin gel solution is intraperitoneal injected at the same time. The samples are injected since the tenth day after allergy has been caused.

[4] = test system: sensitized cavies attacked by antigen (egg albumin); test: Elementarily separated substances: inflammatory cells in bronchial lung lavage solution of sensitized cavies after antigen attack (Table 5); format: in vivo, cavy; conditions: 0.5 mg/kg intraperitoneal, 10 days
Description: 2% egg albumin gel solution is used to cause allergy. The medicine samples are administered since the tenth day after allergy has been caused. The cavies are administered by introgaster method with this tested medicine sample or with physiological saline solution (10 ml/kg); or administered by intraperitoneal method with dexamethasone (0.5 mg/kg). All of the testing medicine samples are administered 10 days. A: total polysaccharide extracted from fermentation product; B: total alkaloids extracted from fermentation product; C: volatile oil extracted from fermentation product; D: organic acid extracted from fermentation product; E: water extract of fermentation product; positive control: dexamethasone.

[5] = test system: sensitized cavies attacked by antigen (egg albumin); test: Inflammatory cells in bronchial lung lavage solution of sensitized cavies after antigen attack (Table 3); format: in vivo, cavy; conditions: 0.5 mg/kg Ip, 10 days
Description: 2% egg albumin gel solution is used to cause allergy and is subcutaneously injected (0.05 mL each part) in ten parts of two retral soles, groin, waist, back, neck and armpits of each cavy. 0.5 mL 2% egg albumin gel solution is intraperitoneally injected at the same time. The medicine samples are injected since the tenth day after allergy has been caused. The testing samples of A2, B2, C2 or physiological saline solution (NS, 0.5 mL/kg) or dexamethasone (DXM, […]) are intraperitoneal injected respectively; A1, B1 (5 g/kg), C1 (2.5 g/kg) are administered by intragaster. The above testing samples are administered 10 days. A1: fermentation mycelium powder; […]: culture supernatant concentrated fluid; C1: sporophore powder; A2: water extract of fermentation mycelium; B2: fermentation concentrated fluid; C2: water extract of sporophore powder; dexamethasone sodium phosphate. Asthma as a chronic airway inflammatory disease is characterized by significant increase of eosinophils of bronchus and lung. Eosinophils can release tens of inflammatory substances, such as cytokines, leukotriene and prostapar etc., which may cause inflammation, edema, injury and thickening of airway, make narrow airway and therefore lead to dyspnea. Thus, eosinophil is considered as a target of screening drugs for relieving cough at present. The medicine, which can inhibit inflammation of airway eosinophils, would probably be used for preventing and treating asthma.

Question: CC(C)(C)NCC(O)c1ccc(O)c(CO)c1 (stereo not drawn) [salbutamol] was tested. Which “inhibition of increase of lung resistance (RL) caused by antigen attack” value [1] did it give?
Answer: Its value is “evident inhibition”.

Question: COc1ccc2c3c1O[C@H]1[C@@H](O)C=C[C@H]4[C@@H](C2)N(C)CC[C@@]341 [Codeine phosphate, codeine phosphate] was tested. Which “Cough times (in 10 min)” value [2] did it give?
Answer: Its value is 9.4 ± 8.0.

Question: And the “Inhibition of cough times %” value [2]?
Answer: The value was 67.4%.

Question: With C[C@@H]1C[C@H]2[C@@H]3CCC4=CC(=O)C=C[C@]4(C)[C@@]3(F)[C@@H](O)C[C@]2(C)[C@@]1(O)C(=O)CO [DXM, dexamethasone] as the molecule, how does the Eosinophil [3] read?
Answer: Its Eosinophil is 0.00 ± 0.00 %.

Question: And the Leukocyte counts [3]?
Answer: The Leukocyte counts was 330.5 ± 254.3 Number/mm3.

Question: And the Lymphocyte [3]?
Answer: Its Lymphocyte is 87.70 ± 18.73 %.

Question: And the Neutrophil [3]?
Answer: Its Neutrophil is 12.30 ± 18.74%.

Question: What about the Eosinophils [4] of the same molecule?
Answer: The Eosinophils was 0.00 ± 0.00 %.

Question: What about the “Leukocyte total number” value [4] of the same molecule?
Answer: The value was 330.5 ± 254.3 Number/mm3.

Question: And the Lymphocyte [4]?
Answer: The Lymphocyte was 87.70 ± 18.73 %.

Question: And the Neutrophil [4]?
Answer: The Neutrophil was 12.30 ± 18.74%.

Question: What about the Eosinophils [5] of the same molecule?
Answer: The Eosinophils was 2.60 ± 3.9 %.

Question: What about the Leukocyte total number [5] of the same molecule?
Answer: The Leukocyte total number was 241.6 ± 179.2 Number/mm^3.

Question: And the Lymphocyte [5]?
Answer: The Lymphocyte was 68.4 ± 18.4 %.

Question: What about the Neutrophil [5] of the same molecule?
Answer: The Neutrophil was 28.9 ± 16.6%.
